According to BigSolDB 2.1:

Nc1ncccn1
Conditions	solubility (mole fraction)
in 2-butanone, 272.65 K	0.0201
in 2-butanone, 278.25 K	0.0249
in 2-butanone, 283.55 K	0.0317
in 2-butanone, 288.15 K	0.0361
in 2-butanone, 293.15 K	0.0418
in 2-butanone, 297.85 K	0.0512
in 2-butanone, 302.65 K	0.0621
in 2-butanone, 307.25 K	0.0721
in 2-butanone, 312.55 K	0.0865
in 2-butanone, 317.35 K	0.0988
in 2-butanone, 323.35 K	0.118
in 2-pentanone, 272.65 K	0.0158
in 2-pentanone, 278.25 K	0.0192
in 2-pentanone, 283.55 K	0.0238
in 2-pentanone, 288.15 K	0.027
in 2-pentanone, 293.15 K	0.0309
in 2-pentanone, 297.85 K	0.0372
in 2-pentanone, 302.65 K	0.0446
in 2-pentanone, 307.25 K	0.0513
in 2-pentanone, 312.55 K	0.0603
in 2-pentanone, 317.35 K	0.0684
in 2-pentanone, 323.35 K	0.0808
in acetone, 272.65 K	0.0222
in acetone, 278.25 K	0.027
in acetone, 283.55 K	0.0311
in acetone, 288.15 K	0.0359
in acetone, 293.15 K	0.0415
in acetone, 297.85 K	0.0478
in acetone, 302.65 K	0.0545
in acetone, 307.25 K	0.0618
in acetone, 312.55 K	0.0702
in acetone, 317.35 K	0.0802
in acetone, 323.35 K	0.0913
in acetonitrile, 272.65 K	0.0108
in acetonitrile, 278.25 K	0.0128
in acetonitrile, 283.55 K	0.0156
in acetonitrile, 288.15 K	0.0176
in acetonitrile, 293.15 K	0.0203
in acetonitrile, 297.85 K	0.0251
in acetonitrile, 302.65 K	0.0308
in acetonitrile, 307.25 K	0.0366
in acetonitrile, 312.55 K	0.0449
in acetonitrile, 317.35 K	0.0531
in acetonitrile, 323.35 K	0.0661
in cyclohexanone, 272.65 K	0.0371
in cyclohexanone, 278.25 K	0.0457
in cyclohexanone, 283.55 K	0.0529
in cyclohexanone, 288.15 K	0.0618
in cyclohexanone, 293.15 K	0.072
in cyclohexanone, 297.85 K	0.0835
in cyclohexanone, 302.65 K	0.0952
in cyclohexanone, 307.25 K	0.109
in cyclohexanone, 312.55 K	0.124
in cyclohexanone, 317.35 K	0.143
in cyclohexanone, 323.35 K	0.164
in cyclopentanone, 272.65 K	0.0605
in cyclopentanone, 278.25 K	0.0721
in cyclopentanone, 283.55 K	0.0815
in cyclopentanone, 288.15 K	0.0918
in cyclopentanone, 293.15 K	0.103
in cyclopentanone, 297.85 K	0.116
in cyclopentanone, 302.65 K	0.128
in cyclopentanone, 307.25 K	0.14
in cyclopentanone, 312.55 K	0.154
in cyclopentanone, 317.35 K	0.169
in cyclopentanone, 323.35 K	0.185
in ethanol, 272.65 K	0.00996
in ethanol, 278.25 K	0.0138
in ethanol, 283.55 K	0.0184
in ethanol, 288.15 K	0.0234
in ethanol, 293.15 K	0.0302
in ethanol, 297.85 K	0.0384
in ethanol, 302.65 K	0.0485
in ethanol, 307.25 K	0.06
in ethanol, 312.55 K	0.0765
in ethanol, 317.35 K	0.0945
in ethanol, 323.35 K	0.123
in ethyl acetate, 272.65 K	0.0337
in ethyl acetate, 278.25 K	0.0366
in ethyl acetate, 283.55 K	0.0407
in ethyl acetate, 288.15 K	0.0436
in ethyl acetate, 293.15 K	0.0474
in ethyl acetate, 297.85 K	0.0536
in ethyl acetate, 302.65 K	0.0609
in ethyl acetate, 307.25 K	0.0678
in ethyl acetate, 312.55 K	0.0779
in ethyl acetate, 317.35 K	0.0867
in ethyl acetate, 323.35 K	0.101
in ethyl formate, 272.65 K	0.0286
in ethyl formate, 278.25 K	0.0364
in ethyl formate, 283.55 K	0.0471
in ethyl formate, 288.15 K	0.0542
in ethyl formate, 293.15 K	0.0631
in ethyl formate, 297.85 K	0.0772
in ethyl formate, 302.65 K	0.0928
in ethyl formate, 307.25 K	0.106
in ethyl formate, 312.55 K	0.125
in ethyl formate, 317.35 K	0.14
in ethyl formate, 323.35 K	0.163
in isobutanol, 272.65 K	0.00833
in isobutanol, 278.25 K	0.0116
in isobutanol, 283.55 K	0.0155
in isobutanol, 288.15 K	0.02
in isobutanol, 293.15 K	0.0259
in isobutanol, 297.85 K	0.0331
in isobutanol, 302.65 K	0.0423
in isobutanol, 307.25 K	0.0528
in isobutanol, 312.55 K	0.0669
in isobutanol, 317.35 K	0.0828
in isobutanol, 323.35 K	0.107
in isopentanol, 272.65 K	0.0102
in isopentanol, 278.25 K	0.0136
in isopentanol, 283.55 K	0.0174
in isopentanol, 288.15 K	0.0215
in isopentanol, 293.15 K	0.0264
in isopentanol, 297.85 K	0.0321
in isopentanol, 302.65 K	0.0385
in isopentanol, 307.25 K	0.0458
in isopentanol, 312.55 K	0.0546
in isopentanol, 317.35 K	0.0638
in isopentanol, 323.35 K	0.0769
in isopropanol, 272.65 K	0.00686
in isopropanol, 278.25 K	0.00999
in isopropanol, 283.55 K	0.0139
in isopropanol, 288.15 K	0.0184
in isopropanol, 293.15 K	0.025
in isopropanol, 297.85 K	0.0325
in isopropanol, 302.65 K	0.0422
in isopropanol, 307.25 K	0.0539
in isopropanol, 312.55 K	0.0718
in isopropanol, 317.35 K	0.0918
in isopropanol, 323.35 K	0.122
in methanol, 272.65 K	0.0213
in methanol, 278.25 K	0.028
in methanol, 283.55 K	0.0359
in methanol, 288.15 K	0.0444
in methanol, 293.15 K	0.0554
in methanol, 297.85 K	0.0675
in methanol, 302.65 K	0.0823
in methanol, 307.25 K	0.0984
in methanol, 312.55 K	0.121
in methanol, 317.35 K	0.145
in methanol, 323.35 K	0.18
in methyl acetate, 272.65 K	0.0189
in methyl acetate, 278.25 K	0.0234
in methyl acetate, 283.55 K	0.0296
in methyl acetate, 288.15 K	0.0341
in methyl acetate, 293.15 K	0.0397
in methyl acetate, 297.85 K	0.0488
in methyl acetate, 302.65 K	0.0596
in methyl acetate, 307.25 K	0.0694
in methyl acetate, 312.55 K	0.0838
in methyl acetate, 317.35 K	0.0956
in methyl acetate, 323.35 K	0.115
in n-butanol, 272.65 K	0.00804
in n-butanol, 278.25 K	0.0114
in n-butanol, 283.55 K	0.0157
in n-butanol, 288.15 K	0.0205
in n-butanol, 293.15 K	0.027
in n-butanol, 297.85 K	0.0349
in n-butanol, 302.65 K	0.0449
in n-butanol, 307.25 K	0.0569
in n-butanol, 312.55 K	0.0743
in n-butanol, 317.35 K	0.0934
in n-butanol, 323.35 K	0.123
in n-pentanol, 272.65 K	0.0117
in n-pentanol, 278.25 K	0.0147
in n-pentanol, 283.55 K	0.0182
in n-pentanol, 288.15 K	0.0219
in n-pentanol, 293.15 K	0.0264
in n-pentanol, 297.85 K	0.0314
in n-pentanol, 302.65 K	0.0373
in n-pentanol, 307.25 K	0.0437
in n-pentanol, 312.55 K	0.0521
in n-pentanol, 317.35 K	0.0609
in n-pentanol, 323.35 K	0.0733
in n-propanol, 272.65 K	0.0142
in n-propanol, 278.25 K	0.0187
in n-propanol, 283.55 K	0.0243
in n-propanol, 288.15 K	0.03
in n-propanol, 293.15 K	0.0377
in n-propanol, 297.85 K	0.0462
in n-propanol, 302.65 K	0.0567
in n-propanol, 307.25 K	0.0687
in n-propanol, 312.55 K	0.0849
in n-propanol, 317.35 K	0.102
in n-propanol, 323.35 K	0.127
